Laboratory results: US20190112357A1, “PREVENTION OF PROTEIN DISULFIDE BOND REDUCTION” (MedImmune, LLC, priority 2016, published 2019)

Tests used:
[1] = biological target: T1, recombinant mammalian TrxR1/Trx1 (Rattus norvegicus, UniProt O89049); experiment: Reduction of purified mAb B by recombinant TrxR1/Trx1, capillary electrophoresis; type: biochemical, human (Trx1); details: 0.1 mM ATG, purified mAb B, overnight, oxygen-free
T1 construct: purchased Cayman Chemical (TrxR1); Abcam (Trx1)
T1 sequence (O89049 1-499): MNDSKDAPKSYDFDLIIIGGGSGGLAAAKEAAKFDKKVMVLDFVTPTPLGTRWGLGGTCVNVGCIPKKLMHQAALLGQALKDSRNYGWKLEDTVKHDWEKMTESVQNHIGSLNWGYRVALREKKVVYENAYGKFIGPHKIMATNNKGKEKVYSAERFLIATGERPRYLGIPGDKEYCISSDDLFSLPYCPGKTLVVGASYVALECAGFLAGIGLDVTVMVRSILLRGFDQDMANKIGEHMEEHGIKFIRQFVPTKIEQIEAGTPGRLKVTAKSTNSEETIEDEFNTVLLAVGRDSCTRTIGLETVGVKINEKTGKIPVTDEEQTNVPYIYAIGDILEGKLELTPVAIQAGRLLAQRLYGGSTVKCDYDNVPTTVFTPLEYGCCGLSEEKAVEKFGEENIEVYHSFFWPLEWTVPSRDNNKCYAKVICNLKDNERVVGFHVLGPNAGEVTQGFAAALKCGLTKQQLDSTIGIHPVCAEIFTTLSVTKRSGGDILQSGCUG
Experimental: Antibody reduction in cell culture supernatant samples was measured by detecting the presence of reduced species via capillary electrophoresis using standard procedures on a 2100 Bioanalyzer system (Agilent Technologies, Santa Clara, Calif.). Samples were diluted 1-6 fold depending on titer and analyzed under non-reducing conditions following 2100 Bioanalyzer standard protocols. Supernatant samples from 3 L bioreactors were stored frozen until all samples had been acquired and were ready for analysis. Samples were thawed on ice and analyzed immediately to evaluate the amount of reduced antibody in the reactor on each day of the run.
The role of each enzymatic system in antibody reduction was evaluated by determining the conditions under which these reductase systems cause antibody reduction. Using purified recombinant mammalian reductases, the thioredoxin system was evaluated by spiking purified mAb B into five solutions containing: 1) no enzymes, 2) 1 μM TrxR1, 3) 0.1 μM TrxR1, 4) […], and 5) 0.1 μM TrxR1+2.5 μM Trx1. All samples contained 0.4 mM NADPH and were stored at room temperature overnight. Digital gel-like images were obtained from microchip-based capillary electrophoresis analysis.
To confirm that the activity from a particular reductase system can translate into reduced antibody, a second method was developed to determine the impact of each reductase system on antibody reduction. The principle of the reduction assay is similar to the reductase activity assay described above. The percent of protein reduction without an inhibitor was compared to the percent of protein reduction in the presence of specific inhibitors for GR or TrxR1. In this assay, purified mAb B was spiked into solutions containing recombinant mammalian TrxR1/Trx1 or recombinant mammalian GR/GSSG and stored in an oxygen-free environment overnight. The percent of reduced mAb B antibody was evaluated using capillary electrophoresis, as set forth above.

[2] = system: GR isolated from CHO cell culture; experiment: mAb B reduction by pooled CHO fractions with NADPH and GSSG; type: biochemical, Chinese Hamster; details: 3 μM Cu^2+ or 100 μM ATG, overnight room temperature
Experimental: Purified mAb B was spiked into several solutions containing different combinations of the pooled fractions (PF), recombinant Trx1, GSSG, NADPH, ATG, and Cu^2+. The solutions were incubated at room temperature overnight and the amount of intact antibody remaining was determined by capillary electrophoresis according to the protocol described above. In the first set of samples, purified mAb B was spiked into the pooled fractions with, and without, NADPH.
In the second set of samples, purified mAb B was spiked into solutions containing the pooled enzymes, NADPH, GSSG, and either no inhibitor, 3 μM Cu^2+, or 100 μM ATG. […] This solution contained GR, GSSG, and NADPH, which are needed for the glutathione system.

[3] = biological target: T2, recombinant TrxR1/Trx1 (Rattus norvegicus, UniProt O89049); experiment: DTNB reductase activity assay, recombinant TrxR1/Trx1; details: ATG concentrations higher than 0.1 μM
T2 sequence (O89049 1-499): T1 sequence (O89049 1-499)
Experimental: This assay allows determination of the total reductase activity in a culture sample, as well as determination of the individual contribution made by thioredoxin reductase and glutathione reductase to the total reductase activity of the sample. In this assay, culture samples (cells+media) from 3 L bioreactors were stored frozen until the end of the run, after which the samples were centrifuged to remove the cell pellet then the resulting supernatant was diluted 20-fold into 100 mM tris buffer, pH 7.4, containing 0.4 mM NADPH, 0.15 mM oxidized glutathione, and 3 mM DTNB with the indicated concentration of specific reductase inhibitor. Addition of the enzyme specific inhibitors to the samples allowed the total reductase activity to be determined as well as the individual activity from the thioredoxin and glutathione systems. Reductase activity was monitored by spectroscopic measurement of the increase in absorbance at a wavelength of 412 nm. […] The detected increase in absorbance at this wavelength is caused by the reduction of DTNB (Arnér, ESJ, Biochim. Biophys. Acta—Gen. Subj., 1790:495-526, 2009).
Briefly, culture samples were thawed on ice. […] The absorbance at a wavelength of 412 nm was determined every 30 seconds, for 20 minutes.
Activity of the reductases was calculated as follows. The change in absorbance per minute (Δ412) for each well was determined. […]

SMILES: OC[C@H]1O[C@H]([S-])[C@H](O)[C@@H](O)[C@@H]1O.[Au+] [ATG, aurothioglucose]
- antibody reduction in sample containing TrxR1/Trx1 [1]: complete inhibition of antibody reduction
- antibody reduction in pooled enzymes, NADPH, GSSG [2]: did not inhibit antibody reduction
- TrxR1/Trx1 reductase activity [3]: negligible
